Assay results taken from article PMC12734540, “Unraveling the Potential Antiviral Activity of Isoxazoline-Carbocyclic Monophosphate Nucleotides Against Echovirus 11” (Microorganisms, 2025).
“And” between values parts separate entries of the source, which are not always exact repeats. Equal entries are not always repeated.

Key:
[1] = system: Echovirus 11; assay: Post-infection CPE inhibition assay (crystal violet); assay type: cell-based, Echovirus 11 lineage 1; details: for reduction in E11 infection / E11-induced CPE / EC50: MOI 0.025, 48 h, VERO 76 cells; for EC50: post-infection CPE inhibition
[2] = system: Echovirus 11; assay: E11 RNA quantification in supernatant by qRT-PCR (dose response); assay type: cell-based, Echovirus 11 lineage 1; details: 48 h; for reduction in extracellular viral RNA: supernatant, MOI 0.025, relative to untreated infected controls
Experimental: (§1) Quantification of E11 genomic RNA was used as a hallmark of RNA virus replication within VERO 76-infected cells. The viral RNA was extracted from both cell culture supernatants and cell-associated fractions and quantified by one-step qRT-PCR using the automated Elite InGenius one-step RNA Enterovirus ELITe MGB® Kit, according to the manufacturer’s protocols. The experiment was performed in triplicate and RNA yield was reported as the mean value of a triplicate assay. To improve the accuracy of extracellular RNA quantification, particularly at 48 h post-infection (p.i.), a secondary analysis was performed using a two-step SYBR Green RT-qPCR. In particular, specific primers targeting the gene encoding the RNA-dependent RNA polymerase (RdRp) of E11 were designed using the Primer3 software (version 4.1.0). […]. Reverse transcription was carried out with a high-capacity cDNA synthesis kit, followed by quantitative PCR using SYBR Green Master Mix on a real-time PCR instrument. Data were analyzed using the ΔΔCt method, with normalization to the synthetic RNA spike-in.
The antiviral activity of nucleotides 4a and 4b against E11 replication was further evaluated by quantifying viral RNA in the supernatant of infected VERO 76 cells treated with increasing concentrations of each compound (6.25–50 μM for 4a; 6.25–100 μM for 4b). Following viral infection at a MOI of 0.025, cells were treated and incubated for 48 h. Viral genome copies were then assessed by qRT-PCR. Treatment with nucleotide 4a led to a dose-dependent reduction in extracellular viral RNA, with a 72% decrease observed at 25 μM and an 89% reduction at 50 μM relative to untreated infected controls.

[3] = system: VERO 76 cells; details: for cell viability: 25 µM
Experimental: After 48 h of incubation, 20 µL of MTS reagent were added directly to each well and the plates were incubated according to the manufacturer’s protocol. The conversion of MTS into a soluble formazan product by metabolically active cells was quantified by measuring the absorbance at 490 nm. For data analysis, the optical density (OD) of each well was first corrected by subtracting the background OD (medium + MTS without cells). The percentage of cell viability was then calculated by comparing the corrected OD of treated samples with the mean corrected OD of untreated control cells (0 µM), which was set as 100% viability:Cell viability (%) = (OD_treated − OD_blank)/(mean OD_control − OD_blank) × 100
Two independent experiments were performed, each in triplicate (n = 6 per condition). Dose–response curves were generated and CC50 values were determined by nonlinear regression using GraphPad Prism software v. 8.0 (San Diego, CA, USA).

[4] = system: SARS-CoV-2 RdRp; parameters: method as in PMID 37810686; details: cited from earlier work
[5] = system: Echovirus 11; assay: Time-course analysis of E11 RNA (cell monolayer and supernatant) by qRT-PCR; assay type: cell-based, Echovirus 11 lineage 1; details: 25 µM, MOI 0.025; for reduction in intracellular viral RNA levels: cell monolayer
Experimental: as §1
To evaluate the antiviral activity of compound 4a in VERO 76 cells over time, viral replication was assessed through quantification of viral genome copies via qRT-PCR in both the cell-associated and supernatant fractions, as well as by CPE analysis.
The amount of viral RNA measured in the intracellular and the supernatant fractions was compared against the control group, which consisted of VERO 76 cells that were infected but not subjected to 4a treatment. […] (Figure 5A). […] (Figure 5B).

[6] = system: Echovirus 11; assay: Two-step SYBR Green RT-qPCR of RdRp gene RNA in supernatant; assay type: cell-based, Echovirus 11 lineage 1; details: 25 µM, 48 h p.i., vs untreated controls, p = 0.0003
Experimental: as §1
To further corroborate and confirm the inhibitory effect of 4a on viral RNA release into the extracellular environment, an additional quantification was performed using a two-step SYBR Green-based RT-qPCR targeting the gene ecoding for the viral RdRp. […]

[7] = system: Echovirus 11; assay: Plaque assay of infectious titer; details: 25 µM, supernatants collected at 48 h p.i., vs untreated control (CV)
Experimental: E11 infectious titers were determined by plaque assay. Briefly, 100 µL of culture supernatant from infected cells were serially diluted (10-1–10-4) in DMEM containing 1% FBS. VERO 76 cells were seeded in 24-well plates 24 h before infection to obtain 90% confluency. Cells were inoculated with 50 µl of each dilution and incubated for 1 h at 37 °C with gentle rocking. After adsorption, the inoculum was removed, and cells were overlaid with DMEM containing 1% FBS and carboxymethyl cellulose (CMC). Following 72 h incubation, monolayers were fixed, stained with crystal violet, and plaques were counted. Viral titers were expressed as plaque-forming units per milliliter (PFU/mL) according to:PFU/mL = (number of plaques)/(dilution factor × inoculated volume).

[8] = system: Echovirus 11; assay: Infectivity of viral progeny (CPE on fresh cells); details: 25 µM, supernatants collected 10, 24, 48 h p.i.
Experimental: To directly quantify this effect, a plaque assay was performed on supernatants collected at 48 h p.i.

| SMILES | reduction in E11 infection / E11-induced CPE ([1]; 25 µM, post-infection) | reduction in E11 infection / E11-induced CPE ([1]; 50 µM, post-infection) | EC50 [1] [µM] | effect on viral RNA levels in supernatant ([2]; 6.25–100 µM, MOI 0.025) | CC50 [3] [µM] | cell viability [3] | anti-SARS-CoV-2 RdRp activity [4] | reduction in extracellular viral RNA ([2]; 25 µM) [%] | reduction in extracellular viral RNA ([2]; 50 µM) [%] | reduction in intracellular viral RNA levels ([5]; 10 h p.i.) [%] | reduction in intracellular viral RNA levels ([5]; 24 h p.i.) [%] | drop in viral RNA levels in supernatant ([5]; 24 h p.i.) [%] | drop in viral RNA levels in supernatant ([5]; 48 h p.i.) [%] | RdRp RNA levels in the supernatant [6] | decrease of infectious viral titer (PFU/mL) [7] [fold] | CPE in fresh VERO 76 cells exposed to supernatants of treated cultures [8] | protection from E11-induced CPE ([1]; 6.25 to 25 µM, post-infection, MOI 0.025, VERO 76 cells) |
| --- | --- | --- | --- | --- | --- | --- | --- | --- | --- | --- | --- | --- | --- | --- | --- | --- | --- |
| O=P(O)(O)OC1CC(n2cnc3c(Cl)ncnc32)C2ON=C(c3c4ccccc4c(Br)c4ccccc34)C12 (stereo not shown) [4b] | 58% | 38% | 40.5 ± 1.8 | did not markedly affect viral RNA levels | 93.7 | ~ 77% | moderate anti-SARS-CoV-2 RdRp activity | – | – | – | – | – | – | – | – | – | – |
| O=P(O)(O)OC1CC(n2cnc3c(Cl)ncnc32)C2C(c3c4ccccc4c(Br)c4ccccc34)=NOC12 (stereo not shown) [4a] | 90% and 83.9% | 75% and 79.8% | 8.15 ± 1.4 | – | – | > 80% | moderate anti-SARS-CoV-2 RdRp activity | 72 | 89 | 43 | 65 | 31 | 91 | significantly reduced | > 10 | markedly reduced CPE | – |
| CCC(CC)COC(=O)[C@H](C)N[P@](=O)(OC[C@H]1O[C@@](C#N)(c2ccc3c(N)ncnn23)[C@H](O)[C@@H]1O)Oc1ccccc1 [RDV, Remdesivir, reference compound] | – | – | – | – | – | – | – | – | – | – | – | – | – | – | – | – | robust and dose-dependent protection from E11-induced CPE |
